Test results published in publication doi:10.1101/510487v2 (biorxiv, 2019).

T1: FH-hGlyT2; human GlyT2 (Homo sapiens, UniProt Q9Y345)
T1 sequence (Q9Y345 1-797): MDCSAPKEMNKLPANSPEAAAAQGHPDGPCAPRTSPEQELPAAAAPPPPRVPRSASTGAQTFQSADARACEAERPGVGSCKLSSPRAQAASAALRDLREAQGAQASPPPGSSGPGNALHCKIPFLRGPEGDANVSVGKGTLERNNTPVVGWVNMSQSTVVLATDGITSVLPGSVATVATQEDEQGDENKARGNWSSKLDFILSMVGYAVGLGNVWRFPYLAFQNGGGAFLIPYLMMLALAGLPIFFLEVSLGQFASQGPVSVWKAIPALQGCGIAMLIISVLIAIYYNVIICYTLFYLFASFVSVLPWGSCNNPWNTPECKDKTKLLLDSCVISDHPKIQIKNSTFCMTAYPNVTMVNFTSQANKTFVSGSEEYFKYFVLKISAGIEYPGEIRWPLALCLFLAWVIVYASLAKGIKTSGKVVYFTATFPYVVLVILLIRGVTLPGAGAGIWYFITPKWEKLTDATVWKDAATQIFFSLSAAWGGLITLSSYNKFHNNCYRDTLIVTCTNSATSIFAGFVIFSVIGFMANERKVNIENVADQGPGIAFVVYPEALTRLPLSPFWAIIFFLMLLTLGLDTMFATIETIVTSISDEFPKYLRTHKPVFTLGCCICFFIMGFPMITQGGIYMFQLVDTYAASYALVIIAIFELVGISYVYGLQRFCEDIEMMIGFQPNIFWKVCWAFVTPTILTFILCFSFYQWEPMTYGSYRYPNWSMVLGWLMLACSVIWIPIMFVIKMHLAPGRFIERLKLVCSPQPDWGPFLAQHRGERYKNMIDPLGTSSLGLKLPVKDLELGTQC


Columns and labels:
[1] = molecular target: T1, FH-hGlyT2; human GlyT2; assay: glycine uptake inhibition in PAE cells; format: cell-based
[2] = substrate: NCC(=O)O; assay: glycine uptake in PAE cells; format: cell-based, Homo sapiens

Molecule | IC50 ([1]; pH 7.5, 10 min uptake) [nM] | further results
CN(CC[C@@H](Oc1ccc(-c2ccccc2)cc1)c1ccc(F)cc1)CC(=O)O [ALX5407, reference compound] |  | IC50 ([1]; slow rate of inhibition, data not shown): 1800 nM
N[C@@H](COC(c1cccc(F)c1)c1ccccc1OCc1ccccc1)C(=O)O (stereo partly drawn) [ALX1393, reference compound] | 26 ± 3 | 
O=c1[nH]c2c(c(=O)[nH]1)CCN(Cc1ccccc1)C2 [Lead 3] | 33200 | 
FH-hGlyT2; human GlyT2 (Homo sapiens) (protein) MDCSAPKEMNKLPANSPEAAAAQGHPDGPCAPRTSPEQELPAAAAPPPPRVPRSASTGAQTFQSADARACEAERPGVGSCKLSSPRAQAASAALRDLREAQGAQASPPPGSSGPGNALHCKIPFLRGPEGDANVSVGKGTLERNNTPVVGWVNMSQSTVVLATDGITSVLPGSVATVATQEDEQGDENKARGNWSSKLDFILSMVGYAVGLGNVWRFPYLAFQNGGGAFLIPYLMMLALAGLPIFFLEVSLGQFASQGPVSVWKAIPALQGCGIAMLIISVLIAIYYNVIICYTLFYLFASFVSVLPWGSCNNPWNTPECKDKTKLLLDSCVISDHPKIQIKNSTFCMTAYPNVTMVNFTSQANKTFVSGSEEYFKYFVLKISAGIEYPGEIRWPLALCLFLAWVIVYASLAKGIKTSGKVVYFTATFPYVVLVILLIRGVTLPGAGAGIWYFITPKWEKLTDATVWKDAATQIFFSLSAAWGGLITLSSYNKFHNNCYRDTLIVTCTNSATSIFAGFVIFSVIGFMANERKVNIENVADQGPGIAFVVYPEALTRLPLSPFWAIIFFLMLLTLGLDTMFATIETIVTSISDEFPKYLRTHKPVFTLGCCICFFIMGFPMITQGGIYMFQLVDTYAASYALVIIAIFELVGISYVYGLQRFCEDIEMMIGFQPNIFWKVCWAFVTPTILTFILCFSFYQWEPMTYGSYRYPNWSMVLGWLMLACSVIWIPIMFVIKMHLAPGRFIERLKLVCSPQPDWGPFLAQHRGERYKNMIDPLGTSSLGLKLPVKDLELGTQC |  | Km [2]: 123 µM

Now from value to molecule, other results behind:

IC50 ([1]; pH 7.5, 10 min uptake) [nM] | Molecule | further results
518 ± 66 | O=C(O)CCCCSc1ncnc2[nH]c(=O)[nH]c12 [ZINC6865169] | 
478 ± 28 | O=C(O)CCSc1[nH]c(=O)nc2[nH]c(=O)[nH]c12 [compound 1, ZINC6620309] | 
